Target: T1, human mAChR M4 (Homo sapiens, UniProt P08173)
T1 construct: expressed in transfected cells; host or cells: CHO-K1 (ATCC), stably co-expressing chimeric G protein Gqi5
T1 sequence (P08173 1-479): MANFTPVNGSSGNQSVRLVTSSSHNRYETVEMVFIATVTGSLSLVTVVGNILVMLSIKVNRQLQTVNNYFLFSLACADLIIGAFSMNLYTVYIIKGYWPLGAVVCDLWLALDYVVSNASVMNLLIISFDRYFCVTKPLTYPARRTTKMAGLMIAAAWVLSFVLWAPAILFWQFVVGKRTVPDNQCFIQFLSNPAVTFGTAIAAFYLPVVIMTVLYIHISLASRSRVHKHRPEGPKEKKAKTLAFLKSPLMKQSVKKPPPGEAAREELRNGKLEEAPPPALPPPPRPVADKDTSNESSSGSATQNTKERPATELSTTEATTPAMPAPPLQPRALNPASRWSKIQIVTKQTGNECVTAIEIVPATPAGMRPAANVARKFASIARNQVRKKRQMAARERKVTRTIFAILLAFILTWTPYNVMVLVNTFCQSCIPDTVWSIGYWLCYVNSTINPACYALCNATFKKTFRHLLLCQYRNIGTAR
Assay: mAChR M4 cell-based functional assay (calcium mobilization, EC80 acetylcholine), human M4
Details: for Emin: human M4, % ACh maximum at 30 μM
Procedure, shortened: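 CHO-K1 cells stably expressing human M4 with chimeric Gqi5; intracellular calcium rise read on FDSS as fluorescence static ratio at 1 Hz. Compounds in 10-point 1:3 dilution series; IC50 taken as concentration-dependent decrease of the EC80 acetylcholine response, four-parameter logistic fit.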

[1] = Table 10, M4/Gqi5/CHO-K1 cells, decrease of EC80 acetylcholine response
[2] = Table 9, M4/Gqi5/CHO-K1 cells, decrease of EC80 acetylcholine response

Row | Human M4 Emin (Table 10) [%] | IC50 [1] [µM] | IC50 [2] [µM] | Emin (Table 9) [%] | IC50 (Table 9, μM) [µM] | Compound
1 | 4 | 0.000667 |  |  |  | Fc1ccccc1-c1ccc(N[C@H]2C[C@@H]3CN(CC4CCOCC4)C[C@@H]3C2)nn1 [Compound 185, (3aR,5s,6aS)-N-[6-(2-fluorophenyl)pyridazin-3-yl]-2-(tetrahydropyran-4-ylmethyl)-3,3a,4,5,6,6a-hexahydro-1H-cyclopenta[c]pyrrol-5-amine]
2 | 38 | 0.0574 |  |  |  | CC(=O)Nc1ccccc1-c1ccc(N[C@H]2C[C@@H]3CN(CC4CCOCC4)C[C@@H]3C2)nn1 [Compound 206, N-[2-[6-[[(3aR,5s,6aS)-2-(tetrahydropyran-4-ylmethyl)-3,3a,4,5,6,6a-hexahydro-1H-cyclopenta[c]pyrrol-5-yl]amino]pyridazin-3-yl]phenyl]acetamide]
3 | 4 | 0.00167 |  |  |  | FC1(F)CCN(c2ccc(N[C@H]3C[C@@H]4CN(CC5CCOCC5)C[C@@H]4C3)nn2)CC1 [Compound 190, (3aR,5s,6aS)-N-[6-(4,4-difluoro-1-piperidyl)pyridazin-3-yl]-2-(tetrahydropyran-4-ylmethyl)-3,3a,4,5,6,6a-hexahydro-1H-cyclopenta[c]pyrrol-5-amine]
4 | 13 | 0.00441 |  |  |  | c1nn(C2CC2)cc1-c1ccc(N[C@H]2C[C@@H]3CN(CC4CCOCC4)C[C@@H]3C2)nn1 [Compound 209, (3aR,5s,6aS)-N-[6-(1-cyclopropylpyrazol-4-yl)pyridazin-3-yl]-2-(tetrahydropyran-4-ylmethyl)-3,3a,4,5,6,6a-hexahydro-1H-cyclopenta[c]pyrrol-5-amine]
5 |  |  | 0.0007 |  |  | CCC(C)CN1C[C@H]2C[C@H](Nc3ccc(-c4cn(C)nc4C)nn3)C[C@H]2C1 (stereo partly shown) [compound 13]

The remaining lines, values behind:

Row | Compound | Human M4 Emin (Table 10) [%] | IC50 [1] [µM] | IC50 [2] [µM] | Emin (Table 9) [%] | IC50 (Table 9, μM) [µM]
6 | Cc1cccnc1CN1C[C@H]2C[C@H](CNc3ccc(-c4c(C)cnn4C)nn3)C[C@H]2C1 [Compound 68, N-[[(3aR,5s,6aS)-2-[(3-methyl-2-pyridyl)methyl]-3,3a,4,5,6,6a-hexahydro-1H-cyclopenta[c]pyrrol-5-yl]methyl]-6-(2,4-dimethylpyrazol-3-yl)pyridazin-3-amine] |  |  | 0.618 | 6.26 | 
7 | CCCC(C)CN1C[C@H]2CC(COc3ccc(-c4c(C)cnn4C)nn3)C[C@H]2C1 (stereo partly drawn) [Compound 82, (3aR,6aS)-5-[[6-(2,4-dimethylpyrazol-3-yl)pyridazin-3-yl]oxymethyl]-2-(2-methylpentyl)-3,3a,4,5,6,6a-hexahydro-1H-cyclopenta[c]pyrrole] |  |  | 0.538 | 4.50 | 
8 | CC(=O)Nc1ccc(-c2cnc(N[C@H]3C[C@@H]4CN(CC5CC6C=CC5C6)C[C@@H]4C3)cn2)cc1 (stereo partly drawn) [Compound 157, N-[4-[5-[[(3aR,5s,6aS)-2-(5-bicyclo[2.2.1]hept-2-enylmethyl)-3,3a,4,5,6,6a-hexahydro-1H-cyclopenta[c]pyrrol-5-yl]amino]pyrazin-2-yl]phenyl]acetamide] | 5 | 0.0529 |  |  | 
9 | Fc1ccc(Cl)c(-c2ccc(O[C@@H]3C[C@@H]4CN(CC5CCOCC5)C[C@@H]4C3)nn2)c1 [Compound 59, (3aR,5r,6aS)-5-[6-(2-chloro-5-fluoro-phenyl)pyridazin-3-yl]oxy-2-(tetrahydropyran-4-ylmethyl)-3,3a,4,5,6,6a-hexahydro-1H-cyclopenta[c]pyrrole] |  |  |  | 20.7 | > 10
10 | Cc1cnn(C)c1-c1ccc(NC[C@H]2C[C@@H]3CN(CC4CCCOC4)C[C@@H]3C2)nn1 (stereo partly drawn) [Compound 67, N-[[(3aR,5s,6aS)-2-(tetrahydropyran-3-ylmethyl)-3,3a,4,5,6,6a-hexahydro-1H-cyclopenta[c]pyrrol-5-yl]methyl]-6-(2,4-dimethylpyrazol-3-yl)pyridazin-3-amine] |  |  | 5.31 | 17.2 | 
